From ChEMBL document CHEMBL3407452, “Linear and branched alkyl-esters and amides of gallic acid and other (mono-, di- and tri-) hydroxy benzoyl derivatives as promising anti-HCV inhibitors” (Eur J Med Chem, 2015) come the findings set out here.

The EC50 is the concentration at which the effect is half-maximal. As usually defined, the CC50 is the concentration that lowers cell viability or growth by half. As a reminder, the EC90 is the point of the concentration-response curve where the effect stands at 90%.

Data set [1] relates to Human immunodeficiency virus 1. In words: Antiviral activity against HIV1 3B infected in human CEM cells assessed as reduction in virus-induced cytopathicity after 4 to 5 days by microscopy based syncytium cell formation assay. The data set is classed as functional, organism-based, CCRF-CEM. Particulars: Human immunodeficiency virus 1, 3B, CCRF-CEM; read-out: EC50. (Damage to the host cells serves as the signal in cytopathic effect assays.)

Data set [2] is described as follows: Cytotoxicity against human CEM cells assessed as inhibition of cell proliferation. Type of data set: cell-based. As to conditions: CEM cells (CCRF-CEM).
The nature of data set [3]: Selectivity index, ratio of CC50 for human CEM cells to EC50 for HIV1 3B. Particulars: read-out: Ratio CC50/EC50. Type of data set: toxicity, cell-based, CCRF-CEM.
Data set [4] relates to Vaccinia virus. The data set can be described thus: Antiviral activity against vaccinia virus. Particulars: Orthopoxvirus vaccinia. Type of data set: functional, organism-based.
Data set [5] has as its system Vesicular stomatitis virus. In words: Antiviral activity against vesicular stomatitis virus. The data set is classed as functional, organism-based.
Data set [6] has as its system Coxsackievirus B4. The data set can be described thus: Antiviral activity against human coxsackievirus B4. The data set is classed as functional, organism-based.
Data set [7] deals with Respiratory syncytial virus. In words: Antiviral activity against RSV. Type of data set: functional, organism-based.
Data set [8] concerns Human respirovirus 3. In words: Antiviral activity against human parainfluenza virus 3. Type of data set: functional, organism-based.
Data set [9] relates to Reovirus sp. In words: Antiviral activity against reovirus. Type of data set: functional, organism-based.
Data set [10] relates to Sindbis virus. The data set can be described thus: Antiviral activity against sindbis virus. Type of data set: functional, organism-based.
Data set [11] relates to Influenza A virus H3N2. In words: Antiviral activity against influenza A virus H3N2. The data set is classed as functional, organism-based.
In data set [12] the test system is Influenza A virus. The data set can be described thus: Antiviral activity against influenza A virus (H1N1). Type of data set: functional, organism-based.
For data set [13], the system named is Punta Toro virus. The data set can be described thus: Antiviral activity against punta toro virus. Type of data set: functional, organism-based.
For data set [14], the system named is Feline coronavirus. The data set can be described thus: Antiviral activity against feline coronavirus. The data set is classed as functional, organism-based.
The subject of data set [15] is Felid alphaherpesvirus 1. In words: Antiviral activity against feline herpesvirus. Type of data set: functional, organism-based.
The subject of data set [16] is Chikungunya virus. The data set can be described thus: Antiviral activity against chikungunya virus. Type of data set: functional.
Data set [17] concerns Human immunodeficiency virus 2. In words: Antiviral activity against HIV2 ROD infected in human CEM cells assessed as reduction in virus-induced cytopathicity after 4 to 5 days by microscopy based syncytium cell formation assay. The data set is classed as functional, organism-based, ISOLATE ROD, CCRF-CEM. As to conditions: Human immunodeficiency virus 2, ISOLATE ROD, CCRF-CEM; read-out: EC50.

The test system of data set [18] is Hepatitis C virus. The data set can be described thus: Antiviral activity against HCV genotype 1b I389luc-ubi-neo/NS3-3'/5.1 replicons infected in human Huh5-2 HCV subgenomic replicon-containing cells assessed as reduction in virus replication after 3 days by luciferase reporter gene assay. Type of data set: functional, Hepacivirus hominis. As to conditions: Hepatitis C virus, genotype 1b, Huh-5-2, 72 h; for EC50: read-out: EC50. For orientation: Replicon systems follow genome replication, usually without infectious particles.

The nature of data set [19]: Cytotoxicity against human Huh5-2 cells after 72 hrs by MTS assay. Type of data set: cell-based, Huh-5-2.

Activity calls are given as the source filed them. The calls are words filed in the database; no cut-off is given here. Some results are limits rather than exact numbers.

Consider `O=C(NCCCCN(CCCNC(=O)c1cc(O)c(O)c(O)c1)C(=O)c1cc(O)c(O)c(O)c1)c1cc(O)c(O)c(O)c1`, for which, in data set [1], the EC50 was found to be 18 µM. Moreover, in [2], the CC50 came out at 107 µM. The selectivity ratio in [3] stood at 6. For the same compound, the outcome in data set [4], in data set [5], in data set [6], in data set [7], in data set [8] and in data set [9] was inactive. Moreover, the outcome in [10], in [11], in data set [12], in data set [13], in data set [14] and in [15] was inactive. Besides, the result in [16] was inactive.
As to `O=C(NCCCCN(CCCNC(=O)c1ccc(O)c(O)c1O)C(=O)c1ccc(O)c(O)c1O)c1ccc(O)c(O)c1O`, the EC50 in data set [1] is 2.6 µM; in data set [17], greater than 10 µM; in data set [18] it was 34 µM. In data set [2], the CC50 amounted to 27 µM. The EC90 in data set [18] was greater than 50 µM. Moreover, the CC50 at 72 h in [19] is greater than 50 µM. Moreover, in [3], the selectivity ratio stood at 10. For the same compound, the result in [4], in [5], in data set [6], in data set [7], in [8] and in data set [9] was inactive. The outcome in [10], in data set [11], in data set [12], in data set [13], in data set [14] and in [15] was inactive. For the same compound, the outcome in data set [16] was inactive.
Take `O=C(NCCN(CCNC(=O)c1ccc(O)c(O)c1O)CCNC(=O)c1ccc(O)c(O)c1O)c1ccc(O)c(O)c1O`: the EC50 in [1] is 2.5 µM; in data set [17], greater than 10 µM; in data set [18], greater than 5.5 µM. The CC50 in data set [2] is 28 µM. The EC90 in [18] was greater than 5.5 µM. In addition, the CC50 at 72 h in data set [19] was greater than 3.7 µM. For the same compound, the selectivity ratio in data set [3] was determined as 10. Besides, the outcome in data set [4], in data set [5], in data set [6], in data set [7], in data set [8] and in data set [9] was inactive. Further, the result in data set [10], in data set [11], in [12], in data set [13], in data set [14] and in data set [15] was inactive. Besides, the outcome in data set [16] was inactive.
With `O=C(NCCCCCCCCNC(=O)c1ccc(O)c(O)c1O)c1ccc(O)c(O)c1O`, the EC50 in data set [1] was greater than 50 µM; in [17] it was greater than 50 µM; in data set [18], 25 µM. Moreover, in [2], the CC50 was determined as 82 µM. In [19], this compound displayed a CC50 at 72 h of 34 µM. The result in [4], in [5], in data set [6], in [7], in data set [8] and in [9] was inactive. Also, the result in [10], in data set [11], in data set [12], in data set [13], in [14] and in data set [15] was inactive. For the same compound, in data set [16], the outcome was inactive.
As for `CCCCOC(=O)c1cc(O)c(O)c(O)c1` [BUTYL GALLATE], the EC50 in data set [1] is greater than 10 µM; in data set [17], greater than 10 µM; in data set [18], 13 µM. In addition, the cytotoxic concentration (CC50) in data set [2] was 55 µM. In addition, the EC90 in [18] is greater than 29 µM. The compound also displayed a CC50 at 72 h in [19] of 29 µM. Besides, the outcome in data set [4], in data set [5], in data set [6], in data set [7], in data set [8] and in [9] was inactive. Besides, the result in data set [10], in [11], in [12], in [13], in data set [14] and in [15] was inactive. The outcome in [16] was inactive.
For `O=C(NCCN(CCN(CCN(CCNC(=O)c1cc(O)c(O)c(O)c1)C(=O)c1cc(O)c(O)c(O)c1)C(=O)c1cc(O)c(O)c(O)c1)C(=O)c1cc(O)c(O)c(O)c1)c1cc(O)c(O)c(O)c1`, the EC50 in data set [1] was 4.9 µM; in [17] it was greater than 10 µM; in data set [18] it was 34 µM. Moreover, in [2], the CC50 was 21 µM. Besides, the EC90 in data set [18] was greater than 50 µM. This compound also displayed a CC50 at 72 h in data set [19] greater than 50 µM. For the same compound, the selectivity ratio in [3] was 4. Also, the outcome in [4], in [5], in data set [6], in [7], in data set [8] and in [9] was inactive. The outcome in [10], in data set [11], in data set [12], in [13], in data set [14] and in data set [15] was inactive. The outcome in [16] was inactive.
For the compound `O=C(NCCCOCCOCCOCCCNC(=O)c1ccc(O)c(O)c1O)c1ccc(O)c(O)c1O`, the figures for the EC50 in data set [1], in [17] and in data set [18] were greater than 50 µM, greater than 50 µM and 28 µM, respectively. For the same compound, the CC50 in [2] came out at 81 µM. The compound further gave a CC50 at 72 h in [19] of 49 µM. The outcome in data set [4], in [5], in data set [6], in data set [7], in data set [8] and in [9] was inactive. Further, the outcome in data set [10], in data set [11], in data set [12], in data set [13], in data set [14] and in data set [15] was inactive. The outcome in [16] was inactive.
Regarding `O=C(NCCCCCCCCCCNC(=O)c1ccc(O)c(O)c1O)c1ccc(O)c(O)c1O`, the EC50 was greater than 50 µM in data set [1], greater than 50 µM in [17] and 11 µM in data set [18]. Also, in data set [2], the 50% cytotoxic concentration (CC50) came out at 100 µM. Further, the CC50 at 72 h in [19] is greater than 100 µM. In addition, the outcome in data set [4], in [5], in [6], in data set [7], in data set [8] and in data set [9] was inactive. For the same compound, the result in [10], in data set [11], in [12], in data set [13], in data set [14] and in data set [15] was inactive. Moreover, in data set [16], the result was inactive.
With `O=C(OCCCCCCOC(=O)c1cc(O)c(O)c(O)c1)c1cc(O)c(O)c(O)c1`, the EC50 in data set [1] was no less than 10 µM; in data set [17], no less than 10 µM; in data set [18], 16 µM. In addition, in data set [2], the CC50 was found to be 22 µM. Also, in data set [19], the CC50 at 72 h was greater than 50 µM. Besides, the result in data set [4], in [5], in data set [6], in data set [7], in data set [8] and in data set [9] was inactive. Moreover, the result in [10], in data set [11], in data set [12], in [13], in data set [14] and in [15] was inactive. For the same compound, the result in [16] was inactive.
